pIC50: −log10 of the molar value.
Experiments:
NCI-H1975 cells [1] = assay: Cytotoxicity / cell proliferation (MTT assay) in NCI-H1975 cells; assay type: cell-based; conditions: for pIC50: Homo sapiens, NCI-H1975
Experimental: (§1) Cell proliferation was determined using MTT assay. Cell viability was estimated by trypan blue dye exclusion. Externalization of phosphatidylserine was tested using an Annexin V/PI Apoptosis Detection kit (BD Biosciences, San Jose, CA) according to manufacturer's instruction.

EGFR kinase = molecular target: T1, EGFR kinase (Homo sapiens, UniProt P00533); assay: In vitro EGFR kinase assay (ADP-Glo Kinase Assay Kit, EGFR Kinase Enzyme System); assay type: biochemical
T1 construct: purchased Promega
T1 sequence (P00533 25-1210): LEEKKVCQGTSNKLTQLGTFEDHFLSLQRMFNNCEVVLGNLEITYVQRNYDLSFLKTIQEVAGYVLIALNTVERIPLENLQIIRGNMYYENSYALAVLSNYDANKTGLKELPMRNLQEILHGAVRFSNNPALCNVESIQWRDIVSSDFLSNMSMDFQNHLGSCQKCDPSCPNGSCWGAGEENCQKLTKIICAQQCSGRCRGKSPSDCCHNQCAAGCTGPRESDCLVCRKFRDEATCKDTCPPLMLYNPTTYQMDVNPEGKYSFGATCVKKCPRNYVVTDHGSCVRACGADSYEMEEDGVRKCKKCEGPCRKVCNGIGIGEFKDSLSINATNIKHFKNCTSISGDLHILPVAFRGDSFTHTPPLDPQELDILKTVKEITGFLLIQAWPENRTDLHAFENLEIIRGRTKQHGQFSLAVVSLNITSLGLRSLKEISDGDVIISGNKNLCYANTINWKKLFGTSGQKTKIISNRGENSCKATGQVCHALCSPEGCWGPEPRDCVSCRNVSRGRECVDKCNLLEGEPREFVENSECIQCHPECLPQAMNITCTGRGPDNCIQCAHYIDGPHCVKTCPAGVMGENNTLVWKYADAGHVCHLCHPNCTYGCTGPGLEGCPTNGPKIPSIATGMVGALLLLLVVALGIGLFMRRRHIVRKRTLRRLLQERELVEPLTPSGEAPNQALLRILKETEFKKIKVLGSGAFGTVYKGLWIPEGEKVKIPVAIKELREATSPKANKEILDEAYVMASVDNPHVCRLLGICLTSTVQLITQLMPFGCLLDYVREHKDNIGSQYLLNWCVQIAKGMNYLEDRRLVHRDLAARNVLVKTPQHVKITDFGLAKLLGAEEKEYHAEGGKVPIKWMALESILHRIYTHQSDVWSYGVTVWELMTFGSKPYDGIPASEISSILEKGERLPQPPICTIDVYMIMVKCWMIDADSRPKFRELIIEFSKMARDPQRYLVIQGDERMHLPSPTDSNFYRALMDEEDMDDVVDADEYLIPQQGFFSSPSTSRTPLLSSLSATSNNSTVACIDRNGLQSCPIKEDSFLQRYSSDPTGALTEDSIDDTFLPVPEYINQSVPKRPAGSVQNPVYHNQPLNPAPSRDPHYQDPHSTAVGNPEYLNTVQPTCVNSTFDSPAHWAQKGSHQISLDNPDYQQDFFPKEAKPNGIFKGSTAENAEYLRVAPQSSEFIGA
Experimental: In vitro kinase inhibitory ability was determined using the ADP-Glo™ Kinase Assay Kit and EGFR Kinase Enzyme System (Promega), following the manufacturer's instructions.

Noxa = Noxa protein expression by Western blot in NCI-H1975 cells; assay type: cell-based; conditions: 3 to 4 µM for 24 h
Experimental: (§2) Cells were suspended in lysis buffer (50 mM Tris-HCl (pH 7.4), 150 mM NaCl, 1% triton X-100, 1% sodium deoxycholate, 0.1% SDS, 1 mM Na3VO4, 1 mM NaF, 1 mM EDTA, 1 mM PMSF, complete protease inhibitor cocktail) and cleared by centrifugation to obtain whole-cell lysates. Equal amounts of samples were separated by SDS-PAGE, transferred to nitrocellulose and immunoblotted with antibody indicated.

NCI-H1975 cells [2] = assay: NCI-H1975 xenograft model in nude mice; assay type: in vivo; conditions: 30 mg/kg/day oral, 3 weeks; for tumor growth: nude mice with subcutaneous NCI-H1975 tumors
Experimental: All animal studies were conducted according to protocols approved by the Animal Ethics Committee of the Institute of Zoology, Chinese Academy of Sciences, with the approval ID of AEC2011030205. All mice used in this study were bred and maintained in a specific pathogen-free environment. NCI-H1975 cells (2.5×10^6) were injected subcutaneously into the right flank of nude mice. […]. Animals were sacrificed when tumors reached 2 cm or if the mice appeared moribund to prevent unnecessary morbidity to the mice. At the time of the animals' death, tumors were excised; cells were separated and lyzed for Western blotting using anti-Noxa antibody and anti-Actin antibodies. Noxa expression was then quantified by densitometry analysis and normalized against Actin expression.
We tested the in vivo anti-tumor efficacy of V1801. […]. Animals were euthanized when they were treated for 3 weeks and the tumor samples were isolated and imaged (Fig. 6c). Proteins were extracted from tumor samples and Western blot assay was conducted. […]

A549 cells [3] = assay: Cell proliferation (MTT assay) in A549 cells; assay type: cell-based; conditions: wild type EGFR-expressing A549, MTT assay, 48 h, dose-dependent
Experimental: as §1, with “instruction. After staining with Hoechst 33258 at 10 µg/ml for 10 min, cell death was assessed by a fluorescence microscope (Leica).” for “instruction.”

NCI-H1975 cells [4] = assay: Soft-agar colony formation (clonogenic) assay; assay type: cell-based; conditions: 3 µM for 12 h, colonies after 2 weeks; compared to gefitinib or vehicle control
From the text: To this end, trypsinized cells were suspended in RPMI 1640 medium containing 10% FBS and low-melting-point 0.3% agarose (Amresco, Solon, OH) and subsequently overlaid onto a solidified layer of RPMI 1640 medium containing 10% FBS and 0.6% agarose in 35 mm plate (5,000 cells/plate) in triplicate. After 2 weeks, the colonies were fixed in 90% ethanol and stained with 0.005% crystal violet (Sigma). The colony forming units with more than 100 cells were counted using a light microscope.

[5] = system: phosphorylated EGFR (p-EGFR); assay: Western blot of phosphorylated EGFR in NCI-H1975 cells; assay type: cell-based; conditions: 12 h
Experimental: as §2

[6] = system: phosphorylated EGFR (p-EGFR); assay: Western blot of phosphorylated EGFR in HCC827 cells; assay type: cell-based; conditions: gefitinib-sensitive HCC827 cells, 12 h
Experimental: as §2

NCI-H1975 cells [7] = assay: Apoptosis by Annexin V/PI staining and flow cytometry in NCI-H1975 cells; assay type: cell-based; conditions: 24 h
Experimental: as §1, with “instruction. After staining with Hoechst 33258 at 10 µg/ml for 10 min, cell death was assessed by a fluorescence microscope (Leica).” for “instruction.”

A549 cells [8] = assay: Apoptosis by Annexin V/PI staining and flow cytometry in A549 cells; assay type: cell-based; conditions: 24 h
Experimental: as §1, with “instruction. After staining with Hoechst 33258 at 10 µg/ml for 10 min, cell death was assessed by a fluorescence microscope (Leica).” for “instruction.”

NCI-H1975 cells [9] = assay: Combination of V1801 and bortezomib in NCI-H1975 cells (MTT, combination index); assay type: cell-based; conditions: 24 h
Experimental: as §1, with “instruction. After staining with Hoechst 33258 at 10 µg/ml for 10 min, cell death was assessed by a fluorescence microscope (Leica).” for “instruction.”
The interaction between compounds was quantified by determining the combination index (CI) calculated by the Chou–Talalay equation [29], [30]. The general equation for the classic isobologram is given by: CI = (D)1/(Dx)1+(D)2/(Dx)2. Where Dx indicates the dose of one compound alone required to produce an effect, (D)1 and (D)2 are the doses of compounds 1 and 2, respectively, necessary to produce the same effect in combination. From this analysis, the combined effects of the two compounds can be summarized as follows: CI<1 indicates synergism; CI = 1 indicates additive effect; and CI>1 indicates antagonism.

[10] = L858R/T790M-EGFR harboring NSCLC cells

pIC50 (EGFR kinase) | SMILES | pIC50 (NCI-H1975 cells [1]; [10]) | other results
6.92 | COc1cc2c(Nc3cc(C(F)(F)F)ccc3F)ncnc2cc1OCCCN1CCCCC1 [V1805] | < 5.00 | 
6.21 | COc1cc2c(Nc3ccc(Br)c(C(F)(F)F)c3)ncnc2cc1OCCCN1CCCCC1 [V1802] | 5.11 | 
< 5.00 | COc1cc2c(Nc3cc(C(F)(F)F)ccc3Cl)ncnc2cc1OCCN1CCCCC1 [V1306] |  | 
 | COc1cc2ncnc(Nc3ccc(F)c(Cl)c3)c2cc1OCCCN1CCOCC1 [Gefitinib, N-(3-chloro-4-fluoro-phenyl)-7-methoxy-6-(3-morpholin-4-ylpropoxy) quinazolin-4-amine, reference compound] |  | Noxa protein level (Noxa): failed to up-regulate; tumor growth (NCI-H1975 cells [2]): does not show therapeutic benefit
< 5.00 | COc1cc2c(Nc3cc(C(F)(F)F)cc(C(F)(F)F)c3)ncnc2cc1OCCCN1CCCCC1 [V1807] | 5.12 | 
< 5.00 | CCCCCCc1cn(CCCOc2cc3ncnc(Nc4cc(C(F)(F)F)ccc4Cl)c3cc2OC)nn1 [V1302] | < 5.00 | 
< 5.00 | COc1cc2c(Nc3cc(C(F)(F)F)ccc3Cl)ncnc2cc1OCCCN=[N+]=[N-] [V1301] | < 5.00 | 
< 5.00 | COc1cc2c(Nc3cc(C(F)(F)F)ccc3Cl)ncnc2cc1OCCCn1cnnn1 [V1303] | < 5.00 | 
< 5.00 | C=CCOc1cc2ncnc(Nc3cc(C(F)(F)F)ccc3Cl)c2cc1OC [V1304] |  | 
5.57 | COc1cc2c(Nc3cc(C(F)(F)F)ccc3Cl)ncnc2cc1OCCCN1CCCCC1 [V1808] | 4.74 | 
 | COc1cc2c(Nc3ccc4c(C(F)(F)F)cc(=O)oc4c3)ncnc2cc1OCCCN1CCCCC1 [V1803] |  | IC50 NCI-H1975 cells (NCI-H1975 cells [1]; [10]): Insoluble
< 5.00 | COc1cc2c(Nc3cc(C(F)(F)F)ccc3Cl)ncnc2cc1OCCCN1CCOCC1 [V1305] |  | 
6.15 | COc1cc2c(Nc3cc(C(F)(F)F)ccc3Br)ncnc2cc1OCCCN1CCCCC1 [V1801, N-(2-bromo-5-(trifluoromethyl)phenyl)-6-methoxy-7-(3-(piperidin-1-yl)propoxy)quinazolin-4-amine] | 5.52 | inhibition of proliferation of NCI-H1975 cells (NCI-H1975 cells [1]; MTT assay, 48 h, dose-dependent): significant inhibitory effects; inhibition of proliferation of A549 cells (A549 cells [3]): significant inhibitory effects; clonogenic activity of NCI-H1975 cells (NCI-H1975 cells [4]): drastically inhibited; down-regulation of phosphorylated EGFR (p-EGFR) [5]: failed to down-regulate; de-phosphorylation of p-EGFR [6]: not; induction of apoptosis (NCI-H1975 cells [7]): induced apoptosis; induction of apoptosis (A549 cells [8]): induced apoptosis; Noxa protein level (Noxa): markedly up-regulated; combination index (CI) (NCI-H1975 cells [9]; V1801 (2 µM) combined with bortezomib 10 to 15 nM, CI<1 indicates synergism): less than 1; tumor growth (NCI-H1975 cells [2]): significantly inhibited tumor growth; Noxa expression in tumor samples (NCI-H1975 cells [2]; Western blot, compared with vehicle or gefitinib control mice): up-regulated
 | CC(C)C[C@H](NC(=O)[C@H](Cc1ccccc1)NC(=O)c1cnccn1)B(O)O [bortezomib, reference compound] |  | enhancement of V1801-caused inhibition of cell proliferation (NCI-H1975 cells [9]; bortezomib 10 to 15 nM with V1801 2 µM, MTT): significantly enhanced
5.70 | COc1cc2c(Nc3ccc4nc(C(F)(F)F)[nH]c4c3)ncnc2cc1OCCCN1CCCCC1 [V1804] | < 5.00 | 
< 5.00 | COc1cc2c(Nc3cc(C(F)(F)F)ccc3Cl)ncnc2cc1OCCCC1CCCCC1 [V1806] | < 5.00 | 

From publication PMC3504066 (PLoS ONE, 2012)
